According to US20250082655A1, “USE OF HETEROCYCLIC COMPOUND” (WUHAN CREATERNA SCIENCE AND TECHNOLOGY CO., LTD., priority 2022, published 2025):
“And” between values parts separate entries of the source, which are not always exact repeats. Identical values can stand only once.

System: citric acid-induced acute cough in guinea pigs
Assay: ATP-sensitized citric acid-induced acute cough model in guinea pigs (WBP system)
Assay type: in vivo, guinea pig
Details: for Total cough count (CCnt): within 10 minutes, Mean ± SEM, N = 12; for Change rate of total cough count: versus solvent group; for average cough times decreased compared to the solvent group: decrease; for antitussive effect (in words): compared to the solvent group
Protocol: • Male Hartley guinea pigs: Beijing Vital River Laboratory Animal Technology Co., Ltd; • 250 μM ATP solution: Sigma, catalog number A2383; • 0.5 M citric acid solution: Sigma, catalog number C2404; • DSI Buxco Whole Body Plethysmography (WBP) system instrument: manufacturer DSI, serial numbers 100249, 990171; • Electronic balance: Mettler Toledo, serial number B844687071.
• Solvent (10% (v/v) E-TPGS aqueous solution, pH 7.4±0.1): TPGS was heated and melted into a liquid in a water bath. 10 mL of TPGS was taken and then added to 85 mL of deionized water, and the mixture was stirred to form a homogeneous solution. The pH was adjusted to 7.4±0.1 using an appropriate concentration of HCl/NaOH. The final volume was made up to 100 mL with deionized water, and the mixture was stirred until visually homogeneous. The pH was checked, and if necessary, adjusted to 7.4±0.1 using an appropriate concentration of HCl/NaOH.
The administration formulation was prepared under yellow light conditions.
The required mass of the compound was accurately weighed into an appropriate container, and slowly added to a suitable container containing 80% of the final volume of the solvent (10% (v/v) E-TPGS aqueous solution, pH 7.4±0.1), and the mixture was stirred until visually homogeneous. The solvent was added to 90% of the final volume, and the mixture was stirred until visually homogeneous. If necessary, the pH was adjusted to 7.3-7.6 with an appropriate concentration of HCl/NaOH. If necessary, the formulation was subjected to ultrasonic treatment. The solvent was then added to the final volume, and the mixture was stirred until a visually clear and homogeneous solution was obtained.
After the preparation of the administration formulation was completed, the administration formulation was aliquoted into daily doses and stored in a refrigerator at 2-8° C., protected from light, and used within 10 days. Prior to administration, the formulation was removed from the refrigerator 30 minutes in advance, and stirred for 30 minutes at room temperature and protected from light until it reached room temperature.
Preparation of dextromethorphan: the required volume for administration was calculated based on the animal's body weight. The weighting amount of dextromethorphan (DM) was determined based on the administration volume and dose. The DM was accurately weighed and dissolved in 1×PBS (Phosphate Buffered Saline) with the calculated administration volume. The solution was mixed homogeneously by shaking until a clear solution was formed, and it was prepared freshly before use.
In the experiment, the solvent (10% (v/v) E-TPGS (Vitamin E Polyethylene Glycol Succinate)) and each test compound were administered to guinea pigs by gavage 3 hours prior to citric acid nebulization. The reference compound, dextromethorphan (DM), was administered to guinea pigs by gavage 40 minutes prior to citric acid nebulization (see Table 1 for details).
At the scheduled time, male Hartley guinea pigs (300-400 g) were placed in the respiratory volume plethysmography chamber of the DSI Buxco Whole Body Plethysmography (WBP) system. After an acclimation period of 3-5 minutes, a solution of ATP with a concentration of 250 μM was nebulized and sprayed into the chamber for 2 minutes. After a 3-minute interval, a solution of citric acid with a concentration of 0.5 M was administered for 5 minutes to induce coughing. From the start of citric acid nebulization, the WBP system recorded the total cough counts (CCnt) within 10 minutes and the cough incubation period (CIP, i.e., the time from the start of citric acid induction to the appearance of the first cough).

[1] = 30 mg/kg oral single dose 3 hours before citric acid nebulization
[2] = 30 mg/kg oral, 3 hours before citric acid nebulization
[3] = 30 mg/kg oral, 3 hours before citric acid

SMILES	Total cough count (CCnt) (63 mg/kg oral single dose 40 minutes before citric acid nebulization)	Cough incubation period (CIP) (63 mg/kg oral, 40 minutes before citric acid nebulization)	Change rate of total cough count (63 mg/kg oral, 40 minutes before citric acid)	Total cough count (CCnt) [1]	Cough incubation period (CIP) [2]	Change rate of total cough count [3]	average cough times decreased compared to the solvent group (30 mg/kg oral)	antitussive effect (in words)	Total cough count (CCnt) (3 mg/kg oral single dose 3 hours before citric acid nebulization)	Cough incubation period (CIP) (3 mg/kg oral, 3 hours before citric acid nebulization)	Change rate of total cough count (3 mg/kg oral, 3 hours before citric acid)	average cough times decreased compared to the solvent group (3 mg/kg oral)	Total cough count (CCnt) (10 mg/kg oral single dose 3 hours before citric acid nebulization)	Cough incubation period (CIP) (10 mg/kg oral, 3 hours before citric acid nebulization)	Change rate of total cough count (10 mg/kg oral, 3 hours before citric acid)	average cough times decreased compared to the solvent group (10 mg/kg oral)
COc1ccc2c(c1)[C@]13CCCC[C@@H]1[C@H](C2)N(C)CC3 [DM, dextromethorphan, reference compound]	12.17 times and 12.17 ± 2.76 ^c times	291.00 s and 291.00 ± 41.65 s	−43.41%	–	–	–	–	–	–	–	–	–	–	–	–	–
O=c1c(-c2ccc(O)cc2)coc2cc(O)cc(O)c12 [Compound 3-1]	–	–	–	11.83 ± 2.02 times	281.67 s and 281.67 ± 37.84 s	−44.96%	44.96%	good antitussive efficacy	–	–	–	–	–	–	–	–
O=C(c1ccc(F)cc1C(F)(F)F)c1cnc2n1CCN(c1cnn(COP(=O)(O)O)c(=O)c1Cl)C2 [Compound 1, (5-chloro-4-(3-(4-fluoro-2-(trifluoromethyl)benzoyl)-5,6-dihydroimidazo[1,2-a]pyrazin-7(8H)-yl)-6-oxopyridazin-1(6H)-yl)methyl Dihydrogen Phosphate]	–	–	–	10.73 times and 10.73 ± 1.71 times	293.75 s and 293.75 ± 33.66 s	−50.11%	50.11%	good antitussive effect	17.00 times and 17.00 ± 2.11 times	234.42 s and 234.42 ± 24.11 s	−20.93%	20.93%	13.42 times and 13.42 ± 1.18 times	283.67 s and 283.67 ± 42.98 s	−37.60%	37.60%
O=c1[nH]ncc(N2CCc3c(ncnc3Oc3ccc(F)cc3C(F)(F)F)C2)c1Cl [Compound 2-1]	–	–	–	12.75 ± 1.86 times	290.08 s and 290.08 ± 43.61 s	−40.70%	40.70%	good antitussive efficacy	–	–	–	–	–	–	–	–
